Read-outs that look alike come from different tables or passages of the source.
Tests used:
primary glial cells = experiment: Inhibition of the NO release of primary glial cells induced by LPS; assay type: cell-based, rat
Text: Lipopolysaccharide (LPS) is a main component of the cell wall of Gram-negative bacteria. It is a potent inflammatory factor that can directly activate gliocytes, and the activated gliocytes secrete a large amount of inflammation mediators such as tumor necrosis factor, interleukin, and nitric oxide, thus causing inflammatory reactions and oxidative stress reactions and eventually leading to neuronal denaturation and death. In recent years, the targeted injection of LPS into rat substantia nigra or striatum to induce neuroinflammation can successfully establish PD models, which can simulate most of the clinical manifestations and pathological features of PD, and are used for the study on the neuroinflammation mechanism associated with PD. LPS-induced primary glial cell PD inflammation model is suitable for the preliminary anti-neuroinflammation screening for neuroprotective agents. LPS is used to directly activate primary glial cells to simulate the pathogenesis mechanism of neuroinflammation, and the inhibitory activity of the target compounds on the inflammatory response of primary glial cells can be investigated.
The materials were taken from the brain tissue of fetal rat, for primary glial cell culture. At 7 to 10 days of the culture, LPS was added for the activation of nitric oxide (NO) release in glial cells. When a target compound was added, the reduction value for NO content in the cell culture medium was measured, to evaluate the anti-neuroinflammation activity of the compound. The experiment included blank control group, LPS model group, positive control group (caffeic acid phenethyl ester, CAPE), prototype control group (styryl sulfone compounds 3B, 3C, 3D, and 3G, the structures of which compounds are shown as above), and target compound group.

[1] = tested on: fetal rat midbrain neurons; experiment: Survival rate of primary midbrain neurons induced by MPP+ (CCK-8); assay type: cell-based; conditions: for viability at 5 µM / viability at 10 µM / viability at 20 µM: Rattus norvegicus, Neuron, read-out: Survival rate (%); for survival rate compared with the styryl sulfone prototype compounds: no concentration stated
Text: The main pathological feature of Parkinson's disease (PD) lies in the degeneration and loss of dopaminergic neuron in the substantia nigra-striatum of the midbrain. 1-Methyl-4-phenylpyridinium (MPP+) has a high affinity to dopamine carriers and a selective toxicity on dopaminergic neurons. Thus, MPP+ is one of the most ideal classic neurotoxins for establishing PD cell models. The primary cell culture of fetal rat midbrain is often used to establish PD cell models in recent years. Although it is more cumbersome and has higher technical requirements than cell line culture, it is closer to the pathological characteristics of PD. Thus, a PD cell model is established using neurons from the primary cell culture of fetal rat midbrain under MPP+ induction, to evaluate the protective effect of target compounds on the model neurons.
The midbrain was separated from a fetal rat of a 15-day-pregnant SD rat and cut into pieces, then subjected to trypsin digestion, pipetting, screen filtration, and resuspension steps, and inoculated in a 24-well cell culture plate pre-coated with poly-D-lysine. 12 hours after culture, cytarabine was added to inhibit the growth of glial cells. On the 5th day of neuron growth, the toxin MPP+ can be added to make a PD cell model. When detecting the activity of a target compound, the target compound was pre-incubated with midbrain neurons for 3 h, then MPP+ was added, and after 48 h co-incubation the neuronal viability was detected by CCK-8 method and the neuronal survival rate was calculated to evaluate the inhibitory activity of the target compound on the midbrain neuronal PD damage. The experiment included blank control group, MPP+ model group, positive control group (caffeic acid phenethyl ester, CAPE), prototype control group (styryl sulfone compounds 3B, 3C, 3D, and 3G), and target compound group (prepared according to Examples 1-22 in the invention).

substantia nigra CD11b = experiment: Number of substantia nigra microglial cells with CD11b positive expression in MPTP Parkinson's disease model mouse (immunohistochemistry); assay type: in vivo; conditions: for Positive cell number (microglial cells with CD11b positive expression): substantia nigra, MPTP Parkinson's disease model mouse, immunohistochemistry
Description: (§1) Neurotoxins can be used to establish PD animal models. Currently, 1-methyl-4-phenyl-1,2,3,6-tetrahydropyridine (MPTP) is the sole synthetic toxin which is recognized to induce PD symptoms in human and non-human primates and in mice. Using MPTP subacute modeling method, C57BL/6J male mice were intraperitoneally injected with MPTP 30 mg/kg, once a day for 5 consecutive days. The experiment animals were divided into blank control group, MPTP model group, and compound treatment group. For the […] compound treatment group, the compound was administrated by gavage for 21 consecutive days after the completion of modeling; for the MPTP model group, the normal saline was administrated by gavage for 21 consecutive days after the completion of modeling; and for the blank control group, the normal saline was first intraperitoneally injected for 5 days, and then administrated by gavage for 21 days.
(§2) Neuron-glial cell network homeostasis disorder is an important factor for the selective and progressive death of substantia nigra dopaminergic neurons in PD. In the neurotoxic effect of MPTP, the excessive activations of microglial cells and astrocytes produce a variety of inflammatory cytokines and reactive oxygen species (ROS). These inflammatory factors and ROS amplify their respective toxicities and mediate malignant feedback loop, causing a cascade inflammation response and aggravating the pathological process of PD. CD11b and GFAP are the marker proteins for activations of microglial cells and astrocytes, respectively. Therefore, the effect of the target compounds on the activations of the microglial cells and astrocytes in the substantia nigra, hippocampus, and midbrain areas of MPTP-induced PD mice can be investigated, to explore the mechanism of the anti-PD effect of the target compounds by inhibiting the neuroinflammation.
(§3) Half of experiment mice in each group were taken to separate the midbrain after perfusion and fixation. The tissue was trimmed, and the substantia nigra area was taken to prepare paraffin sections. The CD11b immunohistochemical staining was performed for the statistics of the change in the number of microglial cells with CD11b positive expression. The experiment included blank control group, MPTP model group, positive control group (caffeic acid phenethyl ester, CAPE), prototype control group (styryl sulfone compounds 3B, 3C, 3D, and 3G, whose structures are shown as above), and target compound group.

[2] = target: acetylcholinesterase (AchE) (Homo sapiens, UniProt P22303); experiment: biochemical
Chain of acetylcholinesterase (AchE) (P22303 32-614, species assumed): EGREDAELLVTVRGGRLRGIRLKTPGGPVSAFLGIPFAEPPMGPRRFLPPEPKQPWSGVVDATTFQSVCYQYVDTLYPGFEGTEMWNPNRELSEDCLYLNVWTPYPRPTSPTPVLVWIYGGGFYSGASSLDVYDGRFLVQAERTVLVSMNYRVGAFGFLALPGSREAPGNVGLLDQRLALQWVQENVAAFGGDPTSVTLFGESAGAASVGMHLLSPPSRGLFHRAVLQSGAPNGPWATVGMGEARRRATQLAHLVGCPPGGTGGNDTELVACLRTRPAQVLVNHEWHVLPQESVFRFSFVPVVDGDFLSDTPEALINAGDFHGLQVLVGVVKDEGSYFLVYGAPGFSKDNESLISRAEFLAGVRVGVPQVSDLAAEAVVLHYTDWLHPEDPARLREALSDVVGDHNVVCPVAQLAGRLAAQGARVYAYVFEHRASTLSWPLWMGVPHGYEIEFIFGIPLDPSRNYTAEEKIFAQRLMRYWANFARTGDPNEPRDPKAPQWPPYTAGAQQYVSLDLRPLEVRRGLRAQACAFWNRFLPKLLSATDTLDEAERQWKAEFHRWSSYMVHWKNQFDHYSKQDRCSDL
Description: The modified Ellman method was used to determine the inhibitory activity on acetylcholinesterase. The principle lies in that acetylthiocholine iodide is decomposed under the action of acetylcholinesterase (AchE) to generate thiocholine. The thiocholine is quickly reacted with DTNB as the colour-developing agent to generate a yellow substance with light absorption at 405 nm. To a 96-well microplate, 50 μl of enzyme reaction buffer, 125 μl of DTNB (3 mM), 25 μl of test sample or positive control drug, and 25 μl of AchE (0.2 U/ml) were successively added. After incubation at room temperature for 5 min, 25 μl of ATCI (15 mM) was added. After incubation at room temperature for 8 min, the absorbance value was determined at 405 nm with a microplate reader. A blank control group without enzyme (25 μl PBS instead of the sample to be tested) was also established.

hippocampus CD11b = experiment: Number of hippocampus microglial cells with CD11b positive expression in MPTP Parkinson's disease model mouse (immunohistochemistry); assay type: in vivo; conditions: for Positive cell number (microglial cells with CD11b positive expression): hippocampus, MPTP Parkinson's disease model mouse, immunohistochemistry
Description: as §1, §2
as §3, with “hippocampus” for “substantia nigra”

[3] = Rattus norvegicus, Glial cell, 5 μM, read-out: NO inhibition (%)
[4] = Rattus norvegicus, Glial cell, 10 μM, read-out: NO inhibition (%)
[5] = Rattus norvegicus, Glial cell, 20 μM, read-out: NO inhibition (%)
[6] = 5 μM, 3 h pre-incubation, 48 h with MPP+
[7] = 10 μM, 3 h pre-incubation, 48 h with MPP+
[8] = 20 μM, 3 h pre-incubation, 48 h with MPP+
[9] = acetylcholinesterase, modified Ellman method, read-out: IC50
[10] = Rattus norvegicus, Glial cell, read-out: NO inhibition (%)

SMILES	inhibition at 5 µM (primary glial cells; [3]) [%]	inhibition at 10 µM (primary glial cells; [4]) [%]	inhibition at 20 µM (primary glial cells; [5]) [%]	viability at 5 µM [1, 6] [%]	viability at 10 µM [1, 7] [%]	viability at 20 µM [1, 8] [%]	Positive cell number (microglial cells with CD11b positive expression) (substantia nigra CD11b)	IC50 [2, 9] [µM]	Positive cell number (microglial cells with CD11b positive expression) (hippocampus CD11b)	other results
O=S(=O)(/C=C/c1ccc(O)c(O)c1)Cc1ccc(C(F)(F)F)cc1 [Compound 3B, (E)-4-{2-[(4-trifluoromethylphenyl)mesyl]ethenyl}benzene-1,2-diol, reference compound]	17.2 ± 4.56	38.6 ± 2.13	92 ± 3.01	65.9 ± 1.47	76.4 ± 6.54	84.9 ± 2.65	44 ± 5	> 100	16 ± 2	–
O=S(=O)(/C=C/c1ccc(O)c(O)c1)CCCc1ccccc1 [Compound 3C, (E)-4-{2-[(3-phenylpropyl)sulfonyl]ethenyl}benzene-1,2-diol, reference compound]	9.24 ± 4.88	24.6 ± 3.09	45.8 ± 5.25	61.3 ± 3.22	75.7 ± 1.98	74.2 ± 4.55	70 ± 6	> 100	20 ± 3	–
O=S(=O)(/C=C/c1ccc(O)c(O)c1)Cc1ccc(Cl)cc1 [Compound 3D, (E)-4-{2-[(4-chlorophenyl)mesyl]ethenyl}benzene-1,2-diol, reference compound]	34.6 ± 4.89	74.7 ± 3.32	–	69.5 ± 5.21	84.1 ± 1.87	91.5 ± 2.32	39 ± 4	> 100	18 ± 3	inhibition at 2 µM (primary glial cells; Rattus norvegicus, Glial cell, 2 μM, read-out: NO inhibition (%)): 23.5 ± 8.05%
CC(C)(C)c1ccc(CS(=O)(=O)/C=C/c2ccc(O)c(O)c2)cc1 [Compound 3G, (E)-4-{2-[(4-t-butylphenyl)mesyl]ethenyl}benzene-1,2-diol, reference compound]	41.2 ± 3.01	59.6 ± 2.44	85.8 ± 3.88	51.4 ± 3.54	68.4 ± 1.89	71.2 ± 3.75	52 ± 5	> 100	18 ± 3	–
CC(C)N(c1ccc(CCS(=O)(=O)/C=C/c2ccc(OC(=O)N(C)c3ccc(I)cc3)c(OCCOCc3ccccc3)c2)cc1)C(C)C [Compound A1-3, (E)-2-(2-benzyloxyethoxy)-4-{2-[4-(N,N-diisopropylamino)phenylethylsulfonyl]ethenyl}phenyl-N-(4-iodophenyl)-N-methylcarbamate]	–	–	–	–	–	–	38 ± 4	–	14 ± 2	inhibition at 5 µM (primary glial cells; [10]): 19.6 ± 3.67%; inhibition at 10 µM (primary glial cells; [10]): 43.2 ± 2.36%; inhibition at 20 µM (primary glial cells; [10]): 62.1 ± 4.73%; viability at 5 µM ([1]; 48 h): 74.3 ± 3.75%; viability at 10 µM ([1]; 48 h): 89.7 ± 1.95%; viability at 20 µM ([1]; 48 h): 94.1 ± 1.87%; IC50 [2]: 25.2 ± 3.34 µM
CCN(CC)C(=O)Oc1ccc(/C=C/S(=O)(=O)Cc2ccc(C(F)(F)F)cc2)cc1OC(=O)N(CC)CC [Compound B1-1, (E)-4-{2-[(4-trifluoromethylphenyl)mesyl]ethenyl}-1,2-phenylenebis(diethylcarbamate)]	21.6 ± 2.18	42.8 ± 3.56	97.7 ± 2.04	78.5 ± 4.12	89.7 ± 2.89	93.8 ± 1.59	32 ± 4	13.3 ± 2.85	9 ± 2	NO inhibitory rate compared with the styryl sulfone prototype compounds (primary glial cells): equivalent or higher inhibitory rate; survival rate compared with the styryl sulfone prototype compounds [1]: significantly increased; number of substantia nigra microglial cells with CD11b positive expression compared with the styryl sulfone prototype compounds (substantia nigra CD11b): significantly lower; number of hippocampus microglial cells with CD11b positive expression compared with the styryl sulfone prototype compounds (hippocampus CD11b): significantly lower
CCN(CC)C(=O)Oc1ccc(/C=C/S(=O)(=O)CCCc2ccccc2)cc1OC(=O)N(CC)CC [Compound C1-1, (E)-4-[2-(3-phenylpropylsulfonyl)ethenyl]-1,2-phenylenebis(diethylcarbamate)]	17.6 ± 3.24	32.8 ± 5.25	59.5 ± 4.33	69.5 ± 3.89	82.2 ± 3.07	90.3 ± 2.17	27 ± 4	14.7 ± 3.51	7 ± 2	NO inhibitory rate compared with the styryl sulfone prototype compounds (primary glial cells): equivalent or higher inhibitory rate; survival rate compared with the styryl sulfone prototype compounds [1]: significantly increased; number of substantia nigra microglial cells with CD11b positive expression compared with the styryl sulfone prototype compounds (substantia nigra CD11b): significantly lower; number of hippocampus microglial cells with CD11b positive expression compared with the styryl sulfone prototype compounds (hippocampus CD11b): significantly lower

Reference: patent US12410124B2 (priority 2019, dated 2025)
